Measurements taken from PMC10354759, “Preclinical assessment of IRDye800CW‐labeled gastrin‐releasing peptide receptor‐targeting peptide for near infrared‐II imaging of brain malignancies” (Bioengineering & Translational Medicine, 2023).
Like-named read-outs stand apart in the source and are kept apart here.

Key:
[1] = system: glioblastoma (GL261 cells); assay: Histological colocalization of fluorescence signal and tumor (Manders' coefficients); type: in vivo, C57BL/6 mouse; conditions: 120 mg/kg intraperitoneally, 4 h post-injection
Procedure: We equally analyzed the histological colocalization of the fluorescence signal and cancer cells. […] Frozen sectioning was performed after fixation of the brain specimen in Tissue‐Tek O.C.T. using a cryostat. The fixed tissue was sliced axially at 30 μm thickness and mounted on a slide for immediate fluorescence micro imaging with the BZ‐X800. Multiple slices were performed across the tumor. Subsequently, we stained some slices with H&E according to common standard procedure, and imaged them with BZ‐X800 or Vectra Polaris. […] The mouse was euthanized and prepared for section imaging at 4 h post‐injection. The 5‐ALA emission was collected with an excitation filter (545 ± 25 nm), dichromatic mirror (565 nm), and a barrier filter (605 ± 70 nm). Quantification of the colocalization of tumor on H&E staining, 5‐ALA, and NIR were performed with the JACoP plugin for ImageJ using the Manders' coefficients.[28] Values of these coefficients range from 0 to 1 and express the fraction of intensity in a channel located in pixels where there is above threshold intensity in the other color channel.

[2] = cited from earlier work; for brightness (NIR-I) higher than ICG: 100 μM
Text: Near‐infrared fluorescence imaging technology is widely used for FGS due to its non‐invasive, real‐time, and multi‐dimensional monitoring characteristics. The combination of the reducing photon scattering, light absorption, and tissue autofluorescence provides a clear view deep into the body, capable of extraordinarily high SBR that are only accomplishable when moving from the NIR‐I to NIR‐II region. Because some organic dyes are relatively easy to synthesize, modifiable, and have low biological toxicity, several studies recently explored clinically approved or commercially available NIR‐I cya ...

GRPR of GL261 cell line = biological target: T1, GRPR of GL261 cell line (Mus musculus, UniProt P21729); assay: Targeted cell imaging (uptake and RM26 blocking); type: cell-based; conditions: 500 μM RM26 before 100 μM IRDye800-RM26, imaged after 1 h
T1 construct: host or cells: GL261 (stably expressing firefly luciferase)
T1 sequence (P21729 whole entry): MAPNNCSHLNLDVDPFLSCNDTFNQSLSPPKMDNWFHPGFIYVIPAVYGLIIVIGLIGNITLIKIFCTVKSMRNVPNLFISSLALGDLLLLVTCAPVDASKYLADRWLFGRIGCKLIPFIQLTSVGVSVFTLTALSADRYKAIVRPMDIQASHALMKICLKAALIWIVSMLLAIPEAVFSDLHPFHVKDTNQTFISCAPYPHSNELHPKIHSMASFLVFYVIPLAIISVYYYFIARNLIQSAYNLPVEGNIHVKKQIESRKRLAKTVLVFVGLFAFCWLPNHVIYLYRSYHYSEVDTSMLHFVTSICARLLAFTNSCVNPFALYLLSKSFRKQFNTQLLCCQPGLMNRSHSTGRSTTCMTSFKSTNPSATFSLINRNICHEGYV
Text: Subsequently, we washed the cells with 1 × PBS 3 times and scanned then using fluorescence microscopy (BZ‐X800; KEYENCE, Japan). The NIR emission was collected with an excitation filter (775 ± 50 nm), dichromatic mirror (810 nm), and a barrier filter (845 ± 55 nm).

## NCC(=O)CCC(=O)O [5-ALA, 5‐aminolevulinic acid]
[1]
  fraction of glioblastoma on 5-ALA overlapping tumor on H&E (Manders' coefficient): 99.8%
  fraction of tumor on H&E overlapping tumor on 5-ALA (Manders' coefficient): 63.8%

## CC1(C)C(/C=C/C=C/C=C/C=C2\N(CCCCS(=O)(=O)O)c3ccc4ccccc4c3C2(C)C)=[N+](CCCCS(=O)(=O)[O-])c2ccc3ccccc3c21 [ICG, indocyanine green]
[2]; bovine blood, 0.01 mg/mL
  brightness relative to IRDye800CW: 12.3 times
[2]; in BSA
  concentration with maximum fluorescence intensity: 10000 to 20000 ng/mL

## CC1(C)C(/C=C/C2=C(Oc3ccc(S(=O)(=O)O)cc3)C(=C/C=C3/N(CCCCS(=O)(=O)O)c4ccc(S(=O)(=O)[O-])cc4C3(C)C)/CCC2)=[N+](CCCCCC(=O)O)c2ccc(S(=O)(=O)O)cc21 [IRDye800]
[2]; FBS
  brightness (NIR-I) higher than ICG: 1.8 fold
[2]; NIR-I, serum
  quantum yield (QY): 12%
[2]; PBS
  brightness (NIR-I) higher than ICG: 3.3 fold

## D‐Phe‐Gln‐Trp‐Ala‐Val‐Gly‐His‐Sta‐Leu‐NH2 [RM26]
GRPR of GL261 cell line
  effect of RM26 blocking on IRDye800-RM26 uptake: reduced
